Results published in paper PMC11085308, “Design, Synthesis and Biological Activity of Novel Methoxy- and Hydroxy-Substituted N-Benzimidazole-Derived Carboxamides” (Molecules, 2024).
Values after ≈ are worked out from the molar mass of the structure shown.

Columns and labels:
[1] = ABTS radical scavenging assay; details: for IC50: head prints 'mM (* µM)', no cell carries an asterisk
Text: (§1) The synthesized benzazole acrylonitrile derivatives were screened for their antioxidative potency by using in vitro assays, namely DPPH and ABTS as free radical scavenging assays and FRAP as a ferric reducing/antioxidant power assay.
(§2) The well-known antioxidant butylated hydroxytoluene (BHT) was used as a standard for comparing activity during testing. The DPPH assay is a standard commonly used test for the in vitro assessment of the antioxidant capacity of novel compounds by using their ability to scavenge the stable radical 1,1-diphenyl-picrylhydrazyl. […] Another test used to evaluate the antioxidative capacity of novel compounds was the ABTS test, by which their activity was evaluated by scavenging the stable radical 3-ethylbenzthiazoline-6-sulphonic acid.
The total antioxidant activity (TEAC) method was adapted for use with a microplate reader. […] On the day of analysis, the ABTS•+ solution was diluted with PBS (pH7.4) to attain an absorbance of 0.700 ± 0.01 at 734 nm. This radical state remained stable for over two days when stored in the dark at room temperature. The standards and solutions of the tested compounds (10 µL) were mixed with the working ABTS•+ solution (200 µL) in microplate wells and incubated at room temperature for 5 min. The reduction in absorbance at 734 nm was measured using a µQuant (Biotec Inc., Auburn, CA, USA) microplate reader. The percentage scavenging of the test samples at each concentration was calculated using the following formula:[(Abscontrol − Abscompound)/Abscontrol] × 100
The IC50 values for each compound were calculated from dose–response curves. All measurements where carried out in triplicate with a linear regression analysis.

[2] = tested on: HCT 116 cells; test: Antioxidative activity assay in cells (ROS level, DCFH-DA fluorescence); type: cell-based, human; details: HCT 116, TBHP 100 µM plus 10 µM compound, 1 h, compared to NAC
Text: We further selected compounds 9, 10, 32 and 36, showing quite pronounced antioxidant capacity in the DPPH and FRAP assays, in order to test their pro- and antioxidant activity in tumor cells. In order to test the antioxidant activity of the selected compounds in tumor cells (Figure 2), we treated HCT 116 cells with tert-butyl hydroperoxide (TBHP), a substance commonly used for inducing oxidative stress in cells and tissues, alone or in combination with a known antioxidative agent, N-acetyl-L-cysteine (NAC), or the tested compounds. We measured the formation of oxidative stress byproducts using 2′,7′-dichlorodihydrofluorescein diacetate (DCFH-DA).
For the antioxidative activity assay, 2.5 × 10^4 cells were seeded into 96-well microtiter plates and left to attach for 24 h. The next day, cells were washed with PBS and incubated in FBS-free DMEM medium with 25 µM of DCFH-DA fluorescence dye. After 45 min of incubation, the medium was discarded, and the cells were washed with PBS.
After the washing step, the cells were incubated with 100 µM of tert-butyl hydroperoxide (TBHP) alone or in combination with antioxidative agents (50 mM of N-Acetyl-L-cysteine-NAC or 10 µM of the tested compounds) in PBS for 1 h at 37 °C. DCFH-DA fluorescence was recorded on a microplate fluorimeter reader (Tecan) with an excitation beam of 485 nm, while the emitted fluorescence was collected at 535 nm. All tests were presented as the means of two independent measurements carried out in triplicate. One-way ANOVA with Tukey’s post hoc test was used for statistical analysis: *—p < 0.05; **—p < 0.01; ***—p < 0.001.
Figure 2 Antioxidative activity of selected systems. HCT 116 cells were treated with a combination of H2O2 (4 mM) and N-acetyl-L-cysteine (NAC, 10 mM) or the tested compounds (10 mM). Treatment with H2O2 (4 mM) alone was used as a control for ROS induction. The level of reactive oxygen species (ROS) was measured with the fluorescent dye DCFH-DA using a fluorimeter. The data presented here are the results of three independent measurements carried out in triplicate. A one-way ANOVA with Tukey’s post hoc test was used for statistical analysis, *** p < 0.001; ns—not significant.

[3] = tested on: HEK 293 (human embryonic kidney); test: Antiproliferative activity in vitro, MTT assay, 72 h, non-cancerous cell line; type: cell-based; details: HEK293, 72 h incubation, '-' with footnote a = did not show biological activity due to precipitation
Experimental: (§3) The experiments were carried out on four human cell lines which are derived from three cancer types: H460 (lung carcinoma), HCT 116 (colorectal carcinoma), MCF-7 (human breast cancer) and the non-cancerous cell line HEK 293 (human embryonic kidney).
(§4) The results are compared with the known antiproliferative agents doxorubicin and etoposide. […] Therefore, it is not clear whether the observed antiproliferative activity is due to the biological activity of the compounds or to precipitation.
(§5) The experiments were performed on four human cell lines, including HCT 116 (colon carcinoma), H 460 (lung carcinoma), MCF-7 (breast carcinoma) and HEK 293 (human embryonic kidney cells), in line with previously published experimental procedures. Briefly, the cells were grown in DMEM medium with the addition of 10% fetal bovine serum (FBS), 2 mM of L-glutamine, 100 U/mL of penicillin and 100 µg/mL of streptomycin and cultured as monolayers at 37 °C in a humidified atmosphere with 5% CO2. Cells were seeded at 2 × 10^3 cells/well in standard 96-well microtiter plates and left to attach for 24 h. The next day, a test compound was added in five serial 10-fold dilutions. The rate of cell growth was evaluated after 72 h of incubation with MTT assays. […] Each test was performed in quadruplicate in at least two individual experiments.

[4] = tested on: E. coli efflux del.; test: microbe, parasite or virus in culture; type: cell-based, Escherichia coli; details: for MIC E. coli efflux del.: broth microdilution, 16–24 h at 37 °C, unit inferred
Experimental: (§6) The in vitro antibacterial activity of the synthesized benzamides 7–12 and 31–37 was evaluated against a panel of eight different bacterial strains. The Gram-positive bacterial strains comprised S. aureus, S. pneumoniae and E. faecalis, and the panel of Gram-negative bacteria consisted of E. coli, K. pneumoniae, A. baumannii and P. aeruginosa.
(§7) The selected bacterial strains were Gram-negative Escherichia coli (ATCC 25922) and Gram-positive Staphylococcus aureus (ATCC 29213) and S. Pneumoniae (ATCC 49619). The Saccharomyces cerevisiae ATCC 7752 strain was tested as a eukaryotic model organism. Synthesized compounds were prepared as 10 mM DMSO solutions and tested in a final concentration range of 100–0.2 µM [39].
(§8) Broth microdilution testing was performed according to CLSI (Clinical Laboratory Standards Institute) guidelines. The MIC (minimal inhibitory concentration) value was defined as the last tested concentration of a compound at which there is no visible growth of bacteria. Inoculums for each microorganism were prepared using the direct colony suspension method, where broth solutions that achieved turbidity equivalent to 0.5 McFarland standards were additionally diluted 100× with cation-adjusted MH media (Becton Dickinson). All test plates were incubated for 16–24 h at 37 °C.

[5] = tested on: E. coli ATCC 25922; test: Antibacterial activity in vitro, broth microdilution MIC; type: cell-based, Escherichia coli; details: 16–24 h at 37 °C, unit inferred
Experimental: as §6, §7, §8

[6] = tested on: H460 (lung carcinoma); test: Antiproliferative activity in vitro, MTT assay, 72 h; type: cell-based; details: Homo sapiens, NCI-H460, 72 h incubation
Experimental: as §3, §4, §5

[7] = tested on: HCT 116 (colorectal carcinoma); test: as above; type: cell-based; details: Homo sapiens, 72 h incubation, '-' with footnote a = did not show biological activity due to precipitation
Experimental: as §3, §4, §5

[8] = tested on: MCF-7 (human breast cancer); test: as above; type: cell-based; details: MCF7, 72 h incubation
Experimental: as §3, §4, §5

[9] = Ferric reducing/antioxidant power (FRAP assay); design: FRAP: unit not given here; details: for FRAP: Fe2+ equivalents, triplicate; for FRAP ferric reducing/antioxidant power, in words: compared to the standard BHT
Experimental: as §1
The antioxidant activity of a substance is directly related to its reducing power.
The FRAP method was carried out according to previously described procedures with some modifications to make it compatible with an assay on a 96-well microplate. All results were expressed as Fe^2+ equivalents (Fe^2+ µmol). Ferrous sulphate (FeSO4 × 7H2O) was used to develop a standard curve of 20–2000 µmol/l for the FRAP test.

[10] = tested on: E. faecalis ATCC 29212; test: Antibacterial activity in vitro, broth microdilution MIC; type: cell-based; details: for MIC E. faecalis ATCC 29212: broth microdilution, 16–24 h at 37 °C, unit inferred; for Selectivity of antibacterial activity, in words: against the Gram-positive strain E. faecalis
Experimental: as §6, §7, §8

[11] = tested on: A. baumannii ATCC 17978; test: as above; type: cell-based; details: 16–24 h at 37 °C, unit inferred
Experimental: as §6, §7, §8

[12] = tested on: P. aeruginosa ATCC 27853; test: as above; type: cell-based; details: 16–24 h at 37 °C, unit inferred
Experimental: as §6, §7, §8

[13] = DPPH free radical scavenging assay; details: compared to the standard BHT
Text: as §1, §2
Determination of the reducing activity of the stable radical 1,1-diphenyl-picrylhydrazyl (DPPH):
The reducing activity of the investigated systems was measured by the DPPH method according to previously described procedures with modifications to ensure their use on a 96-well microplate. Briefly, equal volumes of various concentrations of the tested molecules (dissolved in DMSO) were added to a solution of DPPH (final concentration of 50 µM in absolute ethanol). Ethanol and DMSO were used as control solutions in line with earlier reports. The radical scavenging activity was calculated using the following formula:[(A517 control − A517 compound)/A517 control] × 100.
The IC50 values were calculated from dose–response curves using nonlinear regression analysis with the GraphPad Prism 8 Ink. program. All measurements were carried out in triplicate.

[14] = tested on: S. aureus ATCC 29213; test: Antibacterial activity in vitro, broth microdilution MIC; type: cell-based, Staphylococcus aureus; details: for MIC S. aureus ATCC 29213: broth microdilution, 16–24 h at 37 °C, unit inferred
Experimental: as §6, §7, §8

Row | Compound | IC50 [1] | Level of ROS in cells under induced oxidative stress [2] | IC50 [3] | MIC E. coli efflux del. [4] | MIC E. coli ATCC 25922 [5] | IC50 [6] | IC50 [7] | IC50 [8] | FRAP [9] | FRAP ferric reducing/antioxidant power, in words [9] | MIC E. faecalis ATCC 29212 [10] | MIC A. baumannii ATCC 17978 [11] | MIC P. aeruginosa ATCC 27853 [12] | DPPH free radical scavenging activity, in words [13] | MIC S. aureus ATCC 29213 [14] | melting point | Selectivity of antibacterial activity, in words [10] | other results
1 | Cc1cc(C(C)(C)C)c(O)c(C(C)(C)C)c1 [BHT, butylated hydroxytoluene, reference compound] | 0.02312 ± 0.00012 mM | – | – | – | – | – | – | – | – | – | – | – | – | – | – | – | – | –
2 | Cn1c(NC(=O)c2cc(O)c(O)c(O)c2)nc2ccccc21 [Compound 9, 3,4,5-trihydroxy-N-(1-methyl-1H-benzo[d]imidazol-2-yl)benzamide] | – | reducing the level of ROS in the cells | 32.3 ± 6.5 µM | > 64 µM | > 64 µM | > 100 µM | > 100 µM | 35.5 ± 5.2 µM | 4036.77 ± 8.82 | excellent in vitro antioxidant activity | 64 µM (≈ 19.2 µg/mL) | > 64 µM | > 64 µM | significantly improved | 64 µM (≈ 19.2 µg/mL) | – | – | –
3 | O=C(Nc1nc2ccccc2[nH]1)c1ccc(O)cc1O [Compound 31, N-(1H-benzo[d]imidazol-2-yl)-2,4-dihydroxybenzamide] | 0.13 ± 0.006 mM | – | 24.5 ± 6.4 µM | 64 µM (≈ 17.2 µg/mL) | > 64 µM | > 100 µM | 38.6 ± 15.6 µM | 35.1 ± 6.9 µM | 89.29 ± 21.92 | – | 32 µM (≈ 8.62 µg/mL) | > 64 µM | > 64 µM | – | > 64 µM | 212 to 214 °C | selective antibacterial activity | –
4 | O=C(Nc1nc2ccccc2[nH]1)c1cc(O)c(O)c(O)c1 [Compound 32, N-(1H-benzo[d]imidazol-2-yl)-3,4,5-trihydroxybenzamide] | – | reducing the level of ROS in the cells | 66 ± 1.7 µM | > 64 µM | > 64 µM | > 100 µM | > 100 µM | 39.8 ± 1.4 µM | 3245.79 ± 16.38 | excellent in vitro antioxidant activity | > 64 µM | > 64 µM | > 64 µM | significantly improved | > 64 µM | 230 to 234 °C | – | –
5 | Cn1c(NC(=O)c2ccc(O)cc2O)nc2cc(C#N)ccc21 [Compound 35, N-(5-cyano-1-methyl-1H-benzo[d]imidazol-2-yl)-2,4-dihydroxybenzamide] | 0.19 ± 0.04 mM | – | 33.5 ± 6.5 µM | 64 µM (≈ 19.7 µg/mL) | > 64 µM | > 100 µM | 10 ± 1.6 µM | 8.7 ± 1.5 µM | 278.61 ± 3.28 | – | 16 µM (≈ 4.93 µg/mL) | > 64 µM | > 64 µM | – | > 64 µM | 273 to 275 °C | selective antibacterial activity | –
6 | CCCCCCn1c(NC(=O)c2cc(O)c(O)c(O)c2)nc2cc(C#N)ccc21 [Compound 37, N-(5-cyano-1-hexyl-1H-benzo[d]imidazol-2-yl)-3,4,5-trihydroxybenzamide] | 0.002 ± 0.0001 mM | – | 37.9 ± 0.4 µM | 16 µM (≈ 6.31 µg/mL) | > 64 µM | 47 ± 8.7 µM | 37.8 ± 6 µM | 38.2 ± 3.2 µM | 2780.81 ± 15.12 | excellent in vitro antioxidant activity | 16 µM (≈ 6.31 µg/mL) | > 64 µM | > 64 µM | significantly improved | 16 µM (≈ 6.31 µg/mL) | 290 to 294 °C | selective antibacterial activity | MIC ([4]; Escherichia coli, read-out: MIC E. coli efflux del.): 16 µM (≈ 6.31 µg/mL); ABTS antioxidative activity, in words ([1]; in comparison to the standard BHT): pronounced antioxidative activity; MIC ([10]; Enterococcus faecalis, ATCC29212, read-out: MIC E. faecalis): 16 µM (≈ 6.31 µg/mL); MIC ([14]; Staphylococcus aureus, ATCC29213, read-out: MIC S. aureus): 16 µM (≈ 6.31 µg/mL)
